pIC50: −log10 of the molar value.
Legend:
[1] = target: T1, Aurora A kinase (Homo sapiens, UniProt O14965); assay: IC50 determination for inhibitors of Aurora A (ELISA-type kinase assay, GST-Histone H3 substrate); type: biochemical; settings: mutant Aurora A kinase, 30 μM ATP, 40 minutes, read-out: IC50 Aurora A kinase inhibition
T1 sequence (O14965 1-403 T288D): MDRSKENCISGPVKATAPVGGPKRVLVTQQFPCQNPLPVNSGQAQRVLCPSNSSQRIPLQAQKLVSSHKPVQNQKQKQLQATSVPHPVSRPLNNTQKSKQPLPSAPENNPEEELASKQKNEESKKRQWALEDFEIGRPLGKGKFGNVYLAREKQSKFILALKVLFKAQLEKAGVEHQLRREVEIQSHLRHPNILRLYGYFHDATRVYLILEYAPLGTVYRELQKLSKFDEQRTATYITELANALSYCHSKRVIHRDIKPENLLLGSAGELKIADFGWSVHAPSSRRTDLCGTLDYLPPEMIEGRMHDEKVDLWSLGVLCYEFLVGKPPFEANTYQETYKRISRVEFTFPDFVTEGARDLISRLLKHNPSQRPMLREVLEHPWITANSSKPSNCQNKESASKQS
Protocol: Aurora A is a serine threonine kinase involved in spindle assembly and chromosome segregation.
The assay is a typically ELISA-type assay where substrate (GST-Histone H3) is coupled to the assay-plate and is phosphorylated by the kinase. Phosphorylation is detected by a mouse anti-Phosphopeptid mAb and an HRP-labeled anti-mouse pAb. The assay is validated for IC50-determination.
Kinase activities were measured by Enzyme-Linked Immunosorbent Assay (ELISA): Maxisorp 384-well plates (Nunc) were coated with recombinant fusion protein comprising residues 1-15 of HistoneH3 fused to the N-terminus of Glutathione-S-Transferase. Plates were then blocked with a solution of 1 mg/mL I-block (Tropix cat# T2015—highly purified form of casein) in phosphate-buffered saline. Kinase reactions were carried out in the wells of the ELISA plate by combining an appropriate amount of mutant Aurora A kinase with test compound and 30 μM ATP. The reaction buffer was 10× Kinase Buffer (Cell Signaling cat #9802) supplemented with 1 μg/mL I-block. Reactions were stopped after 40 minutes by addition of 25 mM EDTA. After washing, substrate phosphorylation was detected by addition of anti-phospho-Histone H3 (Ser 10) 6G3 mAb (Cell Signaling cat #9706) and sheep anti-mouse pAb-HRP (Amersham cat# NA931V), followed by colorimetric development with TMB (3,3′,5,5′-tetramethylbenzidine from Kirkegaard & Perry Laboratories). After readout of the absorbance, IC50 values were calculated using a non-linear curve fit (XLfit software (ID Business Solution Ltd., Guilford, Surrey, UK)).

[2] = system: HCT 116 cells; assay: CellTiter-Glo assay in HCT 116 cells (cell viability); type: cell-based; settings: 120 h; HCT 116 human colon carcinoma cells, 5 days incubation, CellTiter-Glo luminescence
Protocol: The CellTiter-Glo™ Luminescent Cell Viability Assay (Promega) is a homogeneous method of determining the number of viable cells in culture based on quantitation of the ATP present, which signals the presence of metabolically active cells.
HCT 116 cells (human colon carcinoma, ATCC-No. CCl-247) were cultivated in RPMI 1640 medium with GlutaMAX™ I (Invitrogen, Cat-No. 61870-010), 2,5% Fetal Calf Serum (FCS, Sigma Cat-No. F4135 (FBS)); 100 Units/ml penicillin/100 μg/ml streptomycin (=Pen/Strep from Invitrogen Cat. No. 15140). For the assay the cells were seeded in 384 well plates, 1000 cells per well, in the same medium. The next day the test compounds were added in various concentrations ranging from 30 μM to 0.0015 μM (10 concentrations, 1:3 diluted). After 5 days the CellTiter-Glo™ assay was done according to the instructions of the manufacturer (CellTiter-Glo™ Luminescent Cell Viability Assay, from Promega). In brief: the cell-plate was equilibrated to room temperature for approximately 30 minutes and than the CellTiter-Glo™ reagent was added. The contents were carefully mixed for 15 minutes to induce cell lysis. After 45 minutes the luminescent signal was measured in Victor 2, (scanning multiwell spectrophotometer, Wallac).
1st. Day: • Medium: RPMI 1640 with GlutaMAX™ I (Invitrogen, Cat-Nr. 61870), 5% FCS (Sigma Cat.-No. F4135), Pen/Strep (Invitrogen, Cat No. 15140). • HCT116 (ATCC-No. CCl-247): 1000 cells in 60 μl per well of 384 well plate (Greiner 781098, μClear-plate white) • After seeding incubate plates 24 h at 37° C., 5% CO2 2nd. Day: Induction (Treatment with Compounds, 10 Concentrations):
In order to achieve a final concentration of 30 μM as highest concentration 3.5 μl of 10 mM compound stock solution were added directly to 163 μl media. Then step e) of the dilution procedure described below, was followed.
In order to achieve the second highest to the lowest concentrations, a serial dilution with dilution steps of 1:3 was followed according to the procedure (a-e) as described here below: • a) for the second highest concentration add 10 μl of 10 mM stock solution of compound to 20 μl dimethylsulfoxide (DMSO) • b) dilute 8×1:3 (always 10 μl to 20 μl DMSO) in this DMSO dilution row (results in 9 wells with concentrations from 3333.3 μM to 0.51 μM) • c) dilute each concentration 1:47.6 (3.5 μl compound dilution to 163 μl media) • e) add 10 μl of every concentration to 60 μl media in the cell plate resulting in final concentration of DMSO: 0.3% in every well and resulting in 10 final concentration of compounds ranging from 30 μM to 0.0015 μM. • Each compound is tested in triplicate. • Incubate 120 h (5 days) at 37° C., 5% CO2
• Add 30 μl CellTiter-Glo™ Reagent (prepared from CellTiter-Glo™ Buffer and CellTiter-Glo™ Substrate (lyophilized) purchased from Promega) per well, • shake 15 minutes at room temperature • incubate further 45 minutes at room temperature without shaking
• Victor 2 scanning multiwell spectrophotometer (Wallac), Luminescence mode (0.5 sec/read, 477 nm) • Determine IC50 using a non-linear curve fit (XLfit software (ID Business Solution Ltd., Guilford, Surrey, UK))

Row | pIC50 [1] | pIC50 [2] | SMILES
1 | 7.66 | 5.82 to 7.60 | CCN1C(=O)C(C)(C)c2cc3nc(-c4n[nH]c5cc(-c6ccsc6)ccc45)[nH]c3cc21 [Example 4, 5-Ethyl-7,7-dimethyl-2-(6-thiophen-3-yl-1H-indazol-3-yl)-5,7-dihydro-3H-imidazo[4,5-f]indol-6-one]
2 | – | 5.82 to 7.60 | CCN1C(=O)C(C)(C)c2cc3nc(-c4n[nH]c5cc(-c6cccc([N+](=O)[O-])c6)ccc45)[nH]c3cc21 [Example 22, 5-Ethyl-7,7-dimethyl-2-[6-(3-nitro-phenyl)-1H-indazol-3-yl]-5,7-dihydro-3H-imidazo[4,5-f]indol-6-one]
3 | – | 5.82 to 7.60 | CCN1C(=O)C(C)(C)c2cc3nc(-c4n[nH]c5ccc(-c6ccsc6)cc45)[nH]c3cc21 [Example 25, 5-Ethyl-7,7-dimethyl-2-(5-thiophen-3-yl-1H-indazol-3-yl)-5,7-dihydro-3H-imidazo[4,5-f]indol-6-one; compound with acetic acid]
4 | – | 5.82 to 7.60 | CCN1C(=O)C(C)(C)c2cc3nc(-c4n[nH]c5ccc(-c6cnn(C)c6)cc45)[nH]c3cc21 [Example 26, 5-Ethyl-7,7-dimethyl-2-[5-(1-methyl-1H-pyrazol-4-yl)-1H-indazol-3-yl]-5,7-dihydro-3H-imidazo[4,5-f]indol-6-one; compound with acetic acid]
5 | 8.22 | 5.82 to 7.60 | CCN1C(=O)C(C)(C)c2cc3nc(-c4n[nH]c5ccc(-c6cccc(N(C)C)c6)cc45)[nH]c3cc21 [Example 29, 2-[5-(3-Dimethylamino-phenyl)-1H-indazol-3-yl]-5-ethyl-7,7-dimethyl-5,7-dihydro-3H-imidazo[4,5-f]indol-6-one]
6 | – | 5.82 to 7.60 | CCN1C(=O)C(C)(C)c2cc3nc(-c4n[nH]c5cc(-c6ccccn6)ccc45)[nH]c3cc21 [Example 33, 5-Ethyl-7,7-dimethyl-2-(6-pyridin-2-yl-1H-indazol-3-yl)-5,7-dihydro-3H-imidazo[4,5-f]indol-6-one]
7 | – | 5.82 to 7.60 | CCN1C(=O)C(C)(C)c2cc3nc(-c4n[nH]c5ccc(-c6cncnc6)cc45)[nH]c3cc21 [Example 35, 5-Ethyl-7,7-dimethyl-2-(5-pyrimidin-5-yl-1H-indazol-3-yl)-5,7-dihydro-3H-imidazo[4,5-f]indol-6-one]
8 | – | 5.82 to 7.60 | CCN1C(=O)C(C)(C)c2cc3nc(-c4n[nH]c5cc(-c6cn[nH]c6)ccc45)[nH]c3cc21 [Example 37, 5-Ethyl-7,7-dimethyl-2-[6-(1H-pyrazol-4-yl)-1H-indazol-3-yl]-5,7-dihydro-3H-imidazo[4,5-f]indol-6-one]

More lines, now with the values behind:

Row | SMILES | pIC50 [1] | pIC50 [2]
9 | CCN1C(=O)C(C)(C)c2cc3nc(-c4n[nH]c5ccc(-c6nc[nH]n6)cc45)[nH]c3cc21 [Example 1, 5-Ethyl-7,7-dimethyl-2-[5-(1H-[1,2,4]triazol-3-yl)-1H-indazol-3-yl]-5,7-dihydro-3H-imidazo[4,5-f]indol-6-one] | 8.70 | 5.82 to 7.60
10 | CCN1C(=O)C(C)(C)c2cc3nc(-c4n[nH]c5cc(/C=C/c6ccc(F)cc6)ccc45)[nH]c3cc21 [Example 6, 5-Ethyl-2-{6-[(E)-2-(4-fluoro-phenyl)-vinyl]-1H-indazol-3-yl}-7,7-dimethyl-5,7-dihydro-3H-imidazo[4,5-f]indol-6-one] | 7.46 | 5.82 to 7.60
11 | CCN1C(=O)C(C)(C)c2cc3nc(-c4n[nH]c5cc(/C=C/c6ccc(C(F)(F)F)cc6)ccc45)[nH]c3cc21 [Example 11, 5-Ethyl-7,7-dimethyl-2-{6-[(E)-2-(4-trifluoromethyl-phenyl)-vinyl]-1H-indazol-3-yl}-5,7-dihydro-3H-imidazo[4,5-f]indol-6-one] | 7.72 | –
12 | CCN1C(=O)C(C)(C)c2cc3nc(-c4n[nH]c5cc(/C=C/C6CCCCC6)ccc45)[nH]c3cc21 [Example 19, 2-[6-((E)-2-Cyclohexyl-vinyl)-1H-indazol-3-yl]-5-ethyl-7,7-dimethyl-5,7-dihydro-3H-imidazo[4,5-f]indol-6-one] | 7.24 | 5.82 to 7.60
13 | CCN1C(=O)C(C)(C)c2cc3nc(-c4n[nH]c5ccc(-c6ccc(OC)nc6)cc45)[nH]c3cc21 [Example 24, 5-Ethyl-2-[5-(6-methoxy-pyridin-3-yl)-1H-indazol-3-yl]-7,7-dimethyl-5,7-dihydro-3H-imidazo[4,5-f]indol-6-one; compound with acetic acid] | – | 5.82 to 7.60
14 | CCN1C(=O)C(C)(C)c2cc3nc(-c4n[nH]c5ccc(-c6cccnc6)cc45)[nH]c3cc21 [Example 27, 5-Ethyl-7,7-dimethyl-2-(5-pyridin-3-yl-1H-indazol-3-yl)-5,7-dihydro-3H-imidazo[4,5-f]indol-6-one] | – | 5.82 to 7.60
15 | CCN1C(=O)C(C)(C)c2cc3nc(-c4n[nH]c5cc(-c6cncnc6)ccc45)[nH]c3cc21 [Example 32, 5-Ethyl-7,7-dimethyl-2-(6-pyrimidin-5-yl-1H-indazol-3-yl)-5,7-dihydro-3H-imidazo[4,5-f]indol-6-one] | – | 5.82 to 7.60
16 | CCN1C(=O)C(C)(C)c2cc3nc(-c4n[nH]c5cc(C#Cc6ccccc6)ccc45)[nH]c3cc21 [Example 38, 5-Ethyl-7,7-dimethyl-2-(6-phenylethynyl-1H-indazol-3-yl)-5,7-dihydro-3H-imidazo[4,5-f]indol-6-one] | 8.05 | 5.82 to 7.60

— US20090291968A1, “SUBSTITUTED INDAZOLE DERIVATIVES, THEIR MANUFACTURE AND USE AS PHARMACEUTICAL AGENTS” (priority 2006, published 2009)
